The values that follow come from US6541463B1, “Inhibitors of type 5 and type 3 17β-hydroxysteroid dehydrogenase and methods for their use” (Endorecherche, Inc., priority 1998, dated 2003).

The target of one data set is T1, glucocorticoid receptor (Rattus norvegicus, UniProt P06536).
T1 construct: from tissue; host or cells: liver cytosol of male Sprague-Dawley rats
T1 sequence (P06536 1-795): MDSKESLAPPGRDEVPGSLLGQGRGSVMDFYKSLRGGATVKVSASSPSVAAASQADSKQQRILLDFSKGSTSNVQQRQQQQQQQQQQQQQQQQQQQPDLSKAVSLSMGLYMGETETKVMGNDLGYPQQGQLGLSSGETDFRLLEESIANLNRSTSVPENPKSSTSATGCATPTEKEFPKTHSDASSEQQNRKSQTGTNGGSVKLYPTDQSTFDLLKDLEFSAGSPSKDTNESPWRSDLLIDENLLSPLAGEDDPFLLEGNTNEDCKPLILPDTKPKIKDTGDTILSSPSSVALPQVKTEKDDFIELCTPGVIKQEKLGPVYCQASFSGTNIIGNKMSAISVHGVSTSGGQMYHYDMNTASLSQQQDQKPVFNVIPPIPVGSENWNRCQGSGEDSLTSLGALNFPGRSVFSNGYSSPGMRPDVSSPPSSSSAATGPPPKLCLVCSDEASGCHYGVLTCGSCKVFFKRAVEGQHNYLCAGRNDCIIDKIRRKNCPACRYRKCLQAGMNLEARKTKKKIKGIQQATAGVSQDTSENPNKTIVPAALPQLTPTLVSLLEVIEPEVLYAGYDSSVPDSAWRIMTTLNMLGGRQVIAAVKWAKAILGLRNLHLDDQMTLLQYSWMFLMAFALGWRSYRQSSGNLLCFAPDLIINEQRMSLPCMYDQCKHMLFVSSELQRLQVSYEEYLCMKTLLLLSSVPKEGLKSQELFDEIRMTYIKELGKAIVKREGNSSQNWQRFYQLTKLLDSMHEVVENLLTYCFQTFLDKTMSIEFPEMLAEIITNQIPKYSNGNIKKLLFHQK
The experiment in a line: Glucocorticoid receptor assay: inhibition of [3H]-dexamethasone binding, liver cytosol. To be noted: for inhibition at 1 µM / inhibition at 0.01 µM: Table 4′; for inhibition at 1 µM: read-out: % Inhibition Glucocorticold Receptor E^−6; for inhibition at 0.01 µM: read-out: % Inhibition Glucocorticold Receptor E^−8. How it is done: The manner in which the percentage of inhibition is determined is described in “Other Tests; F-Glucocorticoid Receptor Assay”.
[6,7-^3H(N)]-Dexamethasone (39 Ci/mmol) was purchased from New England Nuclear (Lachine, Québec, Canada) while unlabeled dexametasone was obtained from Steraloids (Wilton, N.H.). All other chemicals were of analytical grade.
Stock solutions of the unlabeled steroids were kept at 4° C. in ethanol. The desired steroid solutions were then prepared by appropriate dilution in buffer B (10 mM Tris-HCl, 1.5 mM EDTA, 10 mM α-monothioglycerol, pH 7.4) containing 30% ethanol.
Male Sprague-Dawley rats weighing 200-300 g were obtained from Charles-River Inc. (St-Constant, Québec, Canada). The rats were killed by cervical dislocation and the liver were rapidly removed, dissected free from adhering tissue and frozen on dry-ice. Tissues were kept at −80° C. until use.
All procedures were performed at 4° C. Tissues were eminced and homogenized in 10 vol (w/v) of buffer A (25 mM Tris-HCl, 1.5 mM EDTA, 10 mM α-monothioglycerol, 10% glycerol, 10 mM sodium molybdate, pH 7.4) using a Polytron PT-10 homogenizer (Brinkmann Instruments, Canada) at a setting of 5 for two periods of 10 sec, with intervals of 10 sec for cooling. The homogenate was then centrifuged at 105,000×g for 90 min. The supernatant was used immediately for assay.
Glucocorticoid binding was measured using the dextran-coated charcoal adsorption technique. Incubations were performed at 0-4° C. for 16-18 h using 100 μl of cytosol, 100 μl of [^3H]-Dexamethasone (5 nM final) and 100 μl of unlabeled compounds at the indicated concentrations. Each concentration was done in triplicate. Assay was ended with 300 μl of DCC (2.5% Norit A and 0.25% Dextran T-70 in Buffer B). After 10 min of incubation, tubes were centrifuged at 2,000×g for 10 min. and decanted in vials with 6 ml of BCS liquid scintillation (New England Nuclear, Dupont). The radioactivity was measured in a Beckman counter at a counting efficiency of 35%.

Data set [1] is described as follows: In vivo assay of oral bioavailability (plasma AUC 0-7 h by LCMS/MS). Details: species or system male Sprague Dawley rats. To be noted: for AUC(0-t): male, Sprague-Dawley [Crl:CD(SD)Br], 0.5 mg. The method, then:
In column 1, the oral bioavailability of preferred type 5 inhibitors, expressed in ng/mL.h, was determined as described below in “Other Tests, A-In Vivo Assays of Bioavailability of Human Type 5 17β-HSD Inhibitors”. Higher number are desirable. ND means that a determination was not done.
The measurements at various time intervals were for values greater than or equal to 1.0 ng/mL and less than or equal to 50 ng/mL.
Male Sprague-Dawley rats [Crl:CD(SD)Br] weighing 275-350 g were obtained from Charles-River Canada Inc. and housed 2 per cage during the acclimation period and individually during the study period. The animals were maintained under a regimen of 12 hours light: 12 hours dark (lights on at 08:00). Animals received certified Rodent feed (Lab Diet #5002, pellets) and tap water ad libitum. Rats were fasted (access to water only) starting on the evening prior to dosing.
Each compound to be tested was administered to three animals as a suspension in 0.4% methylcellulose by oral gavage at a dose of 0.5 mg/rat (1.0 ml/rat). Four to eight new compounds were tested each day and one group of animals received megestrol acetate (MGA) under the same conditions on each dosing day as a reference. […] Blood samples were immediately transferred into a refrigerated 0.75 ml Microtainer containing EDTA and kept in an ice-water bath until centrifugation at 3000 rpm for 10 minutes. Plasma separation was performed rapidly (less than 50 minutes) after blood collection. One aliquot of 0.25 ml of plasma was then transferred into a borosilicate tube (13×100) and was rapidly frozen on dry-ice. Plasma samples were kept at −80° C. until measurement of plasma concentration of the inhibitor(s) by LCMS/MS.
Aliquots of rat plasma (0.250 mL) were transferred to 13×100 mm borosilicate tubes. Water (1.0 mL) and internal standard solution (0.1 mL) were added to each sample and vortexed for 2 min. A mixture of N-butyl chloride and acetone (v:v, 7:3) (3 mL) was added to each sample and vortexed for 2 min. This step was repeated and the combined organic phases were evaporated to dryness under nitrogen in a Turbo Vap evaporator at 35° C. The residue was reconstituted with 1 mL of methanol and evaporated in a Turbo Vap evaporator at 35° C. The final extract was reconstituted into 0.1 mL of methanol/water (v:v, 75:25) and then transferred into a conical vial for injection into the mass spectrometer.
The assay procedure was performed by analyzing, in duplicate, rat plasma samples spiked at six different Type 5 inhibitor concentrations (1, 2, 5, 10, 20 and 50 ng/mL). The lower limit of quantitation (LOQ) was established at 1.0 ng/mL. Values lower than 1.0 ng/mL were expressed as below limit of quantification (BLQ). […]

As to `COC(=O)CCCC(=O)O[C@]1(C(C)=O)CC[C@H]2[C@@H]3C=C(C)C4=CC(=O)CC[C@]4(C)[C@H]3CC[C@@]21C` [EM-1007, 6-Methyl-4,6-pregnadien-17α-ol-3,20-dione 4′-Carbomethoxybutyrate], the “% Inhibition Glucocorticoid Receptor” value at glucocorticoid receptor (E^−6) and at glucocorticoid receptor (E^−8) was 0% throughout. The “Oral Bioavailability AUC 0-7h” value in data set [1] (AUC 0-7h) came out at 16.4 ng·h/mL.

On to `CN(C)CCOc1ccc2c(c1)CCC1C2CCC2(C)C1CCC21CCC(C)(C)C(=O)O1` (stereo not drawn) [EM-1389-CS], for which the inhibition at 1 µM at glucocorticoid receptor (E^−6) was 3%. In addition, the inhibition at 0.01 µM at glucocorticoid receptor (E^−8) was 0%. The AUC(0-t) in data set [1] (Table 4′, oral, rat plasma) came out at 169 ± 2 ng·h/mL.

Regarding `CC1(C)CCC2(CCC3C4CCc5cc(O)c([N+](=O)[O-])cc5C4CCC32C)OC1=O` (stereo not drawn) [EM-1125-CS], on glucocorticoid receptor (E^−6), the inhibition at 1 µM came out at 1%. Moreover, the inhibition at 0.01 µM at glucocorticoid receptor (E^−8) came to 0%. In data set [1] (Table 4′, oral, rat plasma), the AUC(0-t) was determined as 95 ± 6.5 ng·h/mL.

On to `COc1c(Br)cc2c(c1Br)CCC1C2CCC2(C)C1CCC21CCC(C)(C)C(=O)O1` (stereo not drawn) [EM-1385-CS], for which the inhibition at 1 µM on glucocorticoid receptor (E^−6) stood at 5%. The inhibition at 0.01 µM on glucocorticoid receptor (E^−8) turned out to be 0%. The same compound displayed an AUC(0-t) in data set [1] (Table 4′, oral, rat plasma) of 301 ± 36 ng·h/mL.

With `CC(=O)[C@@]1(OC(=O)CCCCF)CCC2C3C=C(C)C4=CC(=O)CC[C@]4(C)C3CC[C@@]21C` (stereo partly drawn) [EM-1195-CS], the “% Inhibition Glucocorticoid Receptor” value at glucocorticoid receptor (E^−6) worked out at 90%; at glucocorticoid receptor (E^−8), 3%. Also, the AUC(0-t) in data set [1] (rat, plasma, po) came out at 31 ± 5.5 ng·h/mL.

Turning to `COc1ccc(CC(=O)O[C@]2(C(C)=O)CCC3C4C=C(C)C5=CC(=O)C=C[C@]5(C)C4CC[C@@]32C)cc1` (stereo partly drawn) [EM-1291], the “% Inhibition Glucocorticoid Receptor” value at glucocorticoid receptor (E^−6) was determined as 69%; at glucocorticoid receptor (E^−8), 1%. In data set [1] (rat, plasma, po), the AUC(0-t) is 94 ± 23 ng·h/mL.

As for `CCCCN(C)C(=O)[C@@]1(OC(C)=O)CCC2C3C=C(C)C4=CC(=O)CC[C@]4(C)C3CC[C@@]21C` (stereo partly drawn) [EM-1165], the “% Inhibition Glucocorticoid Receptor” value on glucocorticoid receptor (E^−6) is 26%; at glucocorticoid receptor (E^−8) it was 0%. Moreover, in data set [1] (rat, plasma, po), the AUC(0-t) turned out to be 24 ± 3.6 ng·h/mL.

As for `CC1(C)CCC2(CCC3C4CCc5cc(OCCN6CCCCC6)ccc5C4CCC32C)OC1=O` [EM-1390-CS, 3-(N-piperidyl-ethyl)-1,3,5(10)-estratrien-17(R)-spiro-2′-(5′,5′-dimethyl-6′-oxo)-tetrahydropyran], the inhibition at 1 µM at glucocorticoid receptor (E^−6) stood at 0%. For the same compound, the inhibition at 0.01 µM on glucocorticoid receptor (E^−8) turned out to be 2%. Besides, the exposure AUC(0-t) in data set [1] (Table 4′, oral, rat plasma) was found to be 401 ± 5 ng·h/mL.

As for `CC1(C)CCC2(CCC3C4CCc5c(cc(Cl)c(O)c5Cl)C4CCC32C)OC1=O` (stereo not drawn) [EM-1391-CS], the inhibition at 1 µM on glucocorticoid receptor (E^−6) stood at 2%. Also, the inhibition at 0.01 µM at glucocorticoid receptor (E^−8) came to 0%. Besides, in data set [1] (Table 4′, oral, rat plasma), the AUC(0-t) came out at 28 ± 3.4 ng·h/mL.

As for `COCCOc1cc2c(cc1C#N)C1CC[C@@]3(C)C(CC[C@@]34CCC(C)(C)C(=O)O4)C1CC2` (stereo partly drawn) [EM-1396], the inhibition at 1 µM on glucocorticoid receptor (E^−6) was 1%. Also, the inhibition at 0.01 µM at glucocorticoid receptor (E^−8) was 0%. Also, the AUC(0-t) in data set [1] (Table 4′, oral, rat plasma) was determined as 196 ± 53 ng·h/mL.

Consider `CC1CCC2(CCC3C4CCc5cc(O)c([N+](=O)[O-])cc5C4CCC32C)OC1=O` [EM-1131, 2-Nitro-1,3,5(10)-estratrien-3-ol-17(R)-spiro-2′-(5′-methyl-6′-oxo)tetrahydropyran], for which the inhibition at 1 µM on glucocorticoid receptor (E^−6) turned out to be 0%. In addition, the inhibition at 0.01 µM on glucocorticoid receptor (E^−8) is 0%. In addition, in data set [1] (Table 4′, oral, rat plasma), the AUC(0-t) was found to be 124 ± 27 ng·h/mL.

As to `COc1ccc2c(c1)C(=O)CC1C3CCC4(CCC(C)(C)C(=O)O4)C3(C)CCC21O` (stereo not drawn) [EM-1386], the inhibition at 1 µM on glucocorticoid receptor (E^−6) is 0%. For the same compound, on glucocorticoid receptor (E^−8), the inhibition at 0.01 µM came to 3%. The AUC(0-t) in data set [1] (Table 4′, oral, rat plasma) was 5600 ± 789 ng·h/mL.

With `CC1(C)CCC2(CCC3C4CCc5ccccc5C4CCC32C)OC1=O` (stereo not drawn) [CS-224], at glucocorticoid receptor (E^−6), the inhibition at 1 µM came out at 5%. For the same compound, the inhibition at 0.01 µM on glucocorticoid receptor (E^−8) was 1%. In addition, the AUC(0-t) in data set [1] (Table 4′, oral, rat plasma) stood at 18 ± 3.5 ng·h/mL.
